Reference: patent US20260274836A1, “NOVEL HEPATOSELECTIVE POLYADENYLATING POLYMERASES INHIBITORS AND THEIR METHOD OF USE” (Baruch S. Blumberg Institute, priority 2022, published 2026)
Read-outs that look alike come from different tables or passages of the source.

Key:
[1] = test system: 18f-NLuc reporter virus (HM175/18f HAV); assay: Antiviral activity against human hepatitis A virus, 18f-NLuc reporter virus in Huh-7 cells; format: cell-based, Human Hepatitis A Virus (Hepatovirus A)
Description: Assay for Antiviral Activity Against Human Hepatitis A Virus (Hepatovirus A).
(§1) Assays for the anti-HAV activity of the hepatoselective DHQ compounds were carried out in Huh-7 human hepatoma cells using the 18f-NLuc reporter virus, which expresses nanoluciferase (NLuc) from sequence inserted into the polyprotein coding region of the HM175/18f HAV genome between the VP1pX and 2B coding sequences (Yamane et al., 2019). The method was modified minimally from that described by Misumi et al. for iminosugar compounds (Misumi et al., 2021). Cells (approximately […]) were plated in wells of a 96-well plate with Dulbecco's modified Eagle medium (DMEM) and 10% fetal bovine serum. The cells were inoculated 24 hrs later with 18f-NLuc virus (approximately 10^6-10^7 genome equivalents) in medium containing increasing concentrations of the compounds of interest. The cells were re-incubated for 48 hrs at 37° C. in a 5% CO2 environment, then lysed in 1× passive lysis buffer (Promega) for 15 min at room temperature. Cell lysates were transferred to an opaque white 96-well plate (Corning, 3912) and NLuc assay carried out using the NLuc GLOW Assay kit (Nanolight Technology). Luminescence was measured using a Biotek Synergy II multi-mode plate reader (BioTek Instruments). The percent inhibition of replication was calculated by determining the reduction in NLuc activity from that expressed by infected cells incubated in parallel in the absence of compound, and 50% inhibitory endpoints estimated by fitting the data to a four parameter variable slope logistic curve using Prism 9 for Mac OS software (GraphPad). Cell toxicity of the compounds was assessed using the WST-1 Cell Proliferation Reagent (Sigma-Aldrich) at the end of the treatment period in parallel cultures of uninfected cells, with WST-1 reagent added to cultures for 1 hr prior to harvest and O.D. reading.
as §1, with “Additional exemplary compounds of the present invention are evaluated for anti-HAV activity in accordance with certain assays described hereinabove. As discussed above, assays” for “Assays”, “10^6-107” for “10^6-10^7”

[2] = target: T1, OATP1B1 (Homo sapiens, UniProt Q9Y6L6); assay: OATP1B1 transporter substrate uptake in OATP1B1-HEK293 cells; format: in vitro ADME; conditions: for Uptake Ratio (−/+Inhibitor): OATP1B1-HEK293 cells, inhibitor Rifamycin SV
T1 construct: expressed in transfected cells; host or cells: HEK293
T1 sequence (Q9Y6L6 1-691): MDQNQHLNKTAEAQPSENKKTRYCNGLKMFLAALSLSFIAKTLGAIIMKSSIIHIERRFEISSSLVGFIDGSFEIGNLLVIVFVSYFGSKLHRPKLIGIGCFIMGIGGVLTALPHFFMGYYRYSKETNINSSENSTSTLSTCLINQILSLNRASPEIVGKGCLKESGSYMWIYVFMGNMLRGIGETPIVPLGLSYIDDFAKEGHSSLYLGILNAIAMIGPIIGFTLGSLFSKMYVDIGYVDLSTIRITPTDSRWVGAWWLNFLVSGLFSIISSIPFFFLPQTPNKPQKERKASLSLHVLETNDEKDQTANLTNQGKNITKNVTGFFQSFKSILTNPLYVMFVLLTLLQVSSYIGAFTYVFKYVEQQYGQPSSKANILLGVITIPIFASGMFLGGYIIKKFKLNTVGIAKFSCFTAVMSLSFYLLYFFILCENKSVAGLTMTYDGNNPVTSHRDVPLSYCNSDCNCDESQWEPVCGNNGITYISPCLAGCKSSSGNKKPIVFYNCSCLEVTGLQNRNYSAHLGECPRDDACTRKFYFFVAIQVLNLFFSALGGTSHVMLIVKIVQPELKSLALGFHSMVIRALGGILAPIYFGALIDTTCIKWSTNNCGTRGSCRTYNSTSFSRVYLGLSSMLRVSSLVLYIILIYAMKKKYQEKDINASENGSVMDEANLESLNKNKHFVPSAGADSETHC
Description: (§2) Protocol for identification of compounds that are substrates of transporters OATPIBI and OATPIB3. Transfected HEK293 and vector control HEK293 cells were cultured in 24-well poly-D-lysine or collagen-coated tissue culture plates ([…]) for 2 and 10 minutes respectively in transport buffer (HBSSg, pH 7.4, pre-warmed to 37° C.). At a defined time point, the uptake experiments were stopped by removing dosing solution followed by two washes of ice-cold HBSSg buffer. The cells were lysed for 2 minutes with 75% ACN containing an appropriate internal standard (when available). Lysis buffer were chilled to −20° C., and the plate was kept on ice during lysis. The cell lysate was transferred into a 96-well plate for sample analysis with LC-MS/MS analysis to determine concentration of test compound in cell lysate. The uptake of test compounds was normalized by total cell protein using the BCA Protein Assay Kit following the manufacturer's protocol. The inhibitor Rifamycin SV was used to block OATP1B1 and OATP1B3 transporter activity in order to determine uptake ratios.

[3] = target: T2, OATP1B3 (Homo sapiens, UniProt Q9NPD5); assay: OATP1B3 transporter substrate uptake in OATP1B3-HEK293 cells; format: in vitro ADME; conditions: for Uptake Ratio (−/+Inhibitor): OATP1B3-HEK293 cells, inhibitor Rifamycin SV
T2 construct: expressed in transfected cells; host or cells: HEK293
T2 sequence (Q9NPD5 1-702): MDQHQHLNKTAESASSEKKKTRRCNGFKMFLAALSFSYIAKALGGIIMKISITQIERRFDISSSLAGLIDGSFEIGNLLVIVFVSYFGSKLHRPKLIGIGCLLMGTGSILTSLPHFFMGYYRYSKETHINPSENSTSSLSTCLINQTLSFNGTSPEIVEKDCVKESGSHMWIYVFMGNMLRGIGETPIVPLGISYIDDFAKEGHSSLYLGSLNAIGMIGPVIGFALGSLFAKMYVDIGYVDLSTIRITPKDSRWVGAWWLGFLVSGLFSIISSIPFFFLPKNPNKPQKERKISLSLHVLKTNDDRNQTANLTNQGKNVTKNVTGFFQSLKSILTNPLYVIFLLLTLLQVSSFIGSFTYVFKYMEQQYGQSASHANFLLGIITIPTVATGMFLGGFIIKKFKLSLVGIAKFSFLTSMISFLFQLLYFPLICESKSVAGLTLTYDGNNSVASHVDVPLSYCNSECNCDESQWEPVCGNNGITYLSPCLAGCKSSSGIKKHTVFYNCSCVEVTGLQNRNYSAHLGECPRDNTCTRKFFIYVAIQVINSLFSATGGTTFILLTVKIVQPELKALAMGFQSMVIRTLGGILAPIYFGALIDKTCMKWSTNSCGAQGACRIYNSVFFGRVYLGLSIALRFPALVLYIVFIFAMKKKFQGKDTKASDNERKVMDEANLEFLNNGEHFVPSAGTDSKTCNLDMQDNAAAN
Description: as §2

[4] = target: interaction of PAPD5 with ZCCHC14 (Homo sapiens, UniProt Q8NDF8); assay: Interaction of PAPD5 with ZCCHC14
interaction of PAPD5 with ZCCHC14, sequence (Q8NDF8 whole entry): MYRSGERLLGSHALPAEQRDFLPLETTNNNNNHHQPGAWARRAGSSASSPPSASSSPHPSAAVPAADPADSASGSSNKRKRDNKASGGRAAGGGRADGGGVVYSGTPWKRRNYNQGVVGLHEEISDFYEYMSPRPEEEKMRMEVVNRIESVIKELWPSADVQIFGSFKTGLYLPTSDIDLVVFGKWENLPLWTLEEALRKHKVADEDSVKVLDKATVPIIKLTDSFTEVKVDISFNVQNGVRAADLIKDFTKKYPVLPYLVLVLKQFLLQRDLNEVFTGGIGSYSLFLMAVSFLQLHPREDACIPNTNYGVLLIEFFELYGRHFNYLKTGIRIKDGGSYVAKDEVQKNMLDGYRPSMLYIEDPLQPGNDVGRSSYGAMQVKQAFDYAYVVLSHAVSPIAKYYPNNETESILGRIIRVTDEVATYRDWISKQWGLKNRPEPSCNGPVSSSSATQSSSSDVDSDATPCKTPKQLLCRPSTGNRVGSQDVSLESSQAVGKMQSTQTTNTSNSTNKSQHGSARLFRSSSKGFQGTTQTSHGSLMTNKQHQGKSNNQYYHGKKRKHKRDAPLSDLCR

[5] = test system: HAV; conditions: cited from earlier work
[6] = test system: HAV; conditions: Ifnar1^−/− mice, cited from earlier work
[7] = in vitro; format: cell-based; conditions: human
Description: Assays for the anti-HAV activity of the hepatoselective DHQ compounds were carried out in Huh-7 human hepatoma cells using the 18f-NLuc reporter virus, which expresses nanoluciferase (NLuc) from sequence inserted into the polyprotein coding region of the HM175/18f HAV genome between the VP1pX and 2B coding sequences (Yamane et al., 2019). The method was modified minimally from that described by Misumi et al. for iminosugar compounds (Misumi et al., 2021). Cells (approximately […]) were plated in wells of a 96-well plate with Dulbecco's modified Eagle medium (DMEM) and 10% fetal bovine serum. The cells were inoculated 24 hrs later with 18f-NLuc virus (approximately 10^6-10^7 genome equivalents) in medium containing increasing concentrations of the compounds of interest. […] Luminescence was measured using a Biotek Synergy II multi-mode plate reader (BioTek Instruments). […] Cell toxicity of the compounds was assessed using the WST-1 Cell Proliferation Reagent (Sigma-Aldrich) at the end of the treatment period in parallel cultures of uninfected cells, with WST-1 reagent added to cultures for 1 hr prior to harvest and O.D. reading.
Additional exemplary compounds of the present invention are evaluated for anti-HAV activity in accordance with certain assays described hereinabove. […] Luminescence was measured using a Biotek Synergy II multi-mode plate reader (BioTek Instruments). […]

[8] = read-out: EC50 HAV, Huh-7 cells, 18f-NLuc virus, 48 hrs
[9] = Hepatovirus A, Huh-7, 48 h, read-out: EC50 HAV (nM), Huh-7 cells, 18f-NLuc virus, 48 hrs

With COc1cc2c(cc1OCCCCCCCCC(=O)O)C[C@@H](C(C)C)n1cc(C(=O)O)c(=O)cc1-2 [Example H] as the molecule, how does the EC50 [1, 8] read?
Its EC50 is 18.2 nM.

With COCCCOc1cc2c(cc1OC)-c1cc(=O)c(C(=O)O)cn1[C@H](C(C)C)C2 [DHQ-1] as the molecule, how does the “Uptake Ratio (−/+Inhibitor)” value ([2]; test concentration 1 μM) read?
The value was 0.38.

And the “Uptake Ratio (Transporter(−Inhibitor)/Mock(−Inhibitor))” value ([2]; OATP1B1-HEK293 vs mock HEK293, test concentration 1 μM)?
Its value is 0.71.

And the “Uptake Ratio (−/+Inhibitor)” value ([3]; test concentration 1 μM)?
The value was 0.42.

And the “Uptake Ratio (Transporter(−Inhibitor)/Mock(−Inhibitor))” value ([3]; OATP1B3-HEK293 vs mock HEK293, test concentration 1 μM)?
The value was 0.56.

And the “Interaction of PAPD5 with ZCCHC14” value [4]?
Its value is “prevents the interaction of PAPD5 with ZCCHC14”.

What about the “HAV replication in cultured cells” value [5] of the same molecule?
The value was “inhibit HAV replication”.

And the Prevention of infection ([6]; given shortly after intravenous virus challenge)?
The Prevention of infection was “completely prevented infection”.

What about the “HAV replication in mice” value ([6]; oral treatment) of the same molecule?
Its value is “blocked HAV replication”.

With COc1cc2c(cc1OCCc1ccc(C(=O)O)cc1)C[C@@H](C(C)C)n1cc(C(=O)O)c(=O)cc1-2 [Example D] as the molecule, how does the EC50 [1, 9] read?
The EC50 was 245 nM.

With COc1cc2c(cc1OCCCCCCCCC(=O)O)C[C@@H](C(C)C)n1cc(C(=O)O)c(=O)cc1-2 [Example A] as the molecule, how does the EC50 [1, 8] read?
Its EC50 is 67 nM.

For COc1cc2c(cc1OCCCCCC(C)(C)C(=O)O)C[C@@H](C(C)C)n1cc(C(=O)O)c(=O)cc1-2 [Example F], which EC50 [1, 9] is on record?
The EC50 was 25 nM.

For COc1cc2c(cc1OCCCCCCCCC(=O)O)C[C@@H](C(C)C)n1cc(C(=O)O)c(=O)cc1-2 [Example B], which EC50 [1, 8] is on record?
Its EC50 is 63 nM.

With COc1cc2c(cc1OCCc1cccc(C(=O)O)c1)C[C@@H](C(C)C)n1cc(C(=O)O)c(=O)cc1-2 [Example C] as the molecule, how does the EC50 [1, 9] read?
The EC50 was 325 nM.

For C[C@]12CC[C@@H]3c4ccc(O)cc4CC[C@H]3[C@@H]1CC[C@@H]2O[C@@H]1O[C@H](C(=O)O)[C@@H](O)[C@H](O)[C@H]1O [Estradiol 17-β Glucuronide], which “Uptake Ratio (−/+Inhibitor)” value ([2]; test concentration 10 μM) is on record?
Its value is 81.84.

And the “Uptake Ratio (Transporter(−Inhibitor)/Mock(−Inhibitor))” value ([2]; OATP1B1-HEK293 vs mock HEK293, test concentration 10 μM)?
The value was 48.70.

And the “Uptake Ratio (−/+Inhibitor)” value ([3]; test concentration 10 μM)?
Its value is 86.15.

What about the “Uptake Ratio (Transporter(−Inhibitor)/Mock(−Inhibitor))” value ([3]; OATP1B3-HEK293 vs mock HEK293, test concentration 10 μM) of the same molecule?
Its value is 98.86.

For COc1cc2c(cc1OCCCCCCC(=O)O)C[C@@H](C(C)C)n1cc(C(=O)O)c(=O)cc1-2 [Example G], which EC50 [1, 9] is on record?
The EC50 was 278 nM.

For COc1cc2c(cc1OCCCc1ccc(C(=O)O)cc1)C[C@@H](C(C)C)n1cc(C(=O)O)c(=O)cc1-2 [Example E], which EC50 [1, 9] is on record?
Its EC50 is 382 nM.

What does the source list for COc1cc2c(cc1OCCCCCCCCC(=O)O)C[C@@H](C(C)C)n1cc(C(=O)O)c(=O)cc1-2 [Example 8, (S)-9-((8-carboxyoctyl)oxy)-6-isopropyl-10-methoxy-2-oxo-6,7-dihydro-2H-pyrido[2,1-a]isoquinoline-3-carboxylic acid]?
EC50 ([1]; Hepatovirus A, Huh-7, 48 h, Huh-7 cells, 18f-NLuc virus, 48 hrs): 18.2 nM; CC50 at 48 h [7]: > 10000 nM
